# Assay results published in ChEMBL document CHEMBL1201862, “PubChem BioAssay data set” (2004).
# Activity calls are given as the source filed them.
# Tests used:
# [1] = biological target: ADP-ribosylation factor GTPase-activating protein 1 (Rattus norvegicus, UniProt Q62848); experiment: Fluorescence polarization-based biochemical high throughput dose response screening assay to identify inhibitors of ADP-ribosylation factor GTPase activating protein 1 (ARFGAP1).; format: functional
# [2] = biological target: Arf-GAP with SH3 domain, ANK repeat and PH domain-containing protein 1 (Homo sapiens, UniProt Q9ULH1); format: functional;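 also: biochemical fluorescence polarization dose–response screen measuring inhibition of ASAP1; ASAP1 GAP domain stimulating GTP hydrolysis by truncated human ARF1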
# [3] = biological target: T1, Heat shock factor protein 1 (Mus musculus, UniProt P38532); experiment: inhibition of MG132-induced HSE-luciferase signal, confirmation, cell-based, NIH3T3, luminescence, dose retest (AID 2382); format: functional;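 also: NIH3T3 fibroblasts with HSF1-driven luciferase reporter stressed by proteasome inhibitor MG132; luminescence from HSF1-driven luciferase expression after 8 hours of MG132 stress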
# T1 sequence (P38532 whole entry): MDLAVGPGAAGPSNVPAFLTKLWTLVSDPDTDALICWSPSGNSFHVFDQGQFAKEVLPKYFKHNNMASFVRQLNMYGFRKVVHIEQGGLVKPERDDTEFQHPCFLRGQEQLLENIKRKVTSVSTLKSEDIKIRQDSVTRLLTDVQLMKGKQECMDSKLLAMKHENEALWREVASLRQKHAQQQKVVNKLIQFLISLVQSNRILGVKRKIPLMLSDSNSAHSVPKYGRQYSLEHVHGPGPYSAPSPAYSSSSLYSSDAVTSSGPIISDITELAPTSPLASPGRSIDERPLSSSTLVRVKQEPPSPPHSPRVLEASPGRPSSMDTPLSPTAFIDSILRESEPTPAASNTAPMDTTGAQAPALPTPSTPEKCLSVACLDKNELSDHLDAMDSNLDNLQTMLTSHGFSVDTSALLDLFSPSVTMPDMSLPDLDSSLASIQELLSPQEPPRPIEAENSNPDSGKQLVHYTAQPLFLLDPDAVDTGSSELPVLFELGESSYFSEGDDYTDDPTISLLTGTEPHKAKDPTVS
# Lethal factor = Lethal factor (Bacillus anthracis, UniProt P15917); experiment: High-throughput multiplex microsphere dose response for inhibitors of toxin protease, specifically Lethal Factor protease, compounds from Cherry Pick 02.; format: functional; details: read-out: EC50_MICROM
# [4] = biological target: Botulinum neurotoxin type F (Clostridium botulinum, UniProt P30996); experiment: High-throughput multiplex microsphere dose response for inhibitors of toxin protease, specifically Botulinum neurotoxin light chain F protease, compounds from Cherry Pick 02.; format: functional; details: read-out: EC50_MICROM
# Protein skinhead-1 = biological target: T2, Protein skinhead-1 (Caenorhabditis elegans, UniProt P34707); format: functional
# T2 sequence (P34707 whole entry): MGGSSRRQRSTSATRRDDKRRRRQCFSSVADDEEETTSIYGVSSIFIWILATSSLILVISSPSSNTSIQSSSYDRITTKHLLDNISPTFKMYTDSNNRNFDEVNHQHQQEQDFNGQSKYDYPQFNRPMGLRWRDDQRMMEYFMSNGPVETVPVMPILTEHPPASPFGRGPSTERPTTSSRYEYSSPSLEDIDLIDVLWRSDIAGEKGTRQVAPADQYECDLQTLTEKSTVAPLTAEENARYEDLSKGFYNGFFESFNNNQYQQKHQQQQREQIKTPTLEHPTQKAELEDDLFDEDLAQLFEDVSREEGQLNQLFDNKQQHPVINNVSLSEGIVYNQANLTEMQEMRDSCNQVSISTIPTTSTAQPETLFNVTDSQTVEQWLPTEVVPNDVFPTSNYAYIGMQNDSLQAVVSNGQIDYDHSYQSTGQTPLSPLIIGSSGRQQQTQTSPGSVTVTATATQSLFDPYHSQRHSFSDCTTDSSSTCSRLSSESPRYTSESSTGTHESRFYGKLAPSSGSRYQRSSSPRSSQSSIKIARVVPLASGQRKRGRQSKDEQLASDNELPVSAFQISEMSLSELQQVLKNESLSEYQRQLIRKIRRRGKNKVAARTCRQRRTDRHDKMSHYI
# [5] = growth suppression of PTEN-null colon cells, dose response, cell-based, HCT116 PTEN knockout (AID 1047); format: functional;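 also: HCT116 colon tumor cells with PTEN knocked out; cells exposed to compound for 60 hours before readout; potency for loss of cell viability measured by luminescence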
# [6] = growth suppression of beta-catenin-knockout colon cells, dose response, cell-based, HCT116, human colon tumor (AID 1045); format: functional;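 also: HCT116 colon tumor cells with beta catenin knocked out; cells exposed to compound for 60 hours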
# [7] = biological target: T3, Ubiquitin-conjugating enzyme E2 N (Homo sapiens, UniProt P61088); format: functional;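 also: Dose-response confirmation in a TR-FRET assay detecting UBC13-driven polyubiquitin chain formation, inhibition measured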
# T3 sequence (P61088 whole entry): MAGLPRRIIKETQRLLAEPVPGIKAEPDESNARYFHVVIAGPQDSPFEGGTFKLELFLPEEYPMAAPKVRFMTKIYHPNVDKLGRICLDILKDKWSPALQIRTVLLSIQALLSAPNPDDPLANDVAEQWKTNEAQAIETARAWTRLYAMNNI
# [8] = HEK293T cell cytotoxicity, dose response, cytotoxicity control for HIV Vif inhibitor project, cherry-picks (AID 652208); format: functional, cell-based
# [9] = Counterscreen for […] of the human trace amine associated receptor 1 (TAAR1): Fluorescence-based cell-based high throughput dose response assay to identify nonselective Ga16 agonists.; format: functional
# [10] = Counterscreen for antagonists of the human trace amine associated receptor 1 (hTAAR1): Fluorescence-based cell-based high throughput dose response assay to identify nonselective Ga16 antagonists.; format: functional
# Beta-lactamase [11] = biological target: Beta-lactamase (Pseudomonas aeruginosa, UniProt Q79MP6);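 also: biochemical dose-response test of metallo-beta-lactamase enzyme inhibition, read out by epi-absorbance; purified recombinant IMP-1 metallo-beta-lactamase with nitrocefin as substrate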
# Beta-lactamase [12] = biological target: Beta-lactamase (Salmonella choleraesuis (strain SC-B67), UniProt Q5J463)
# cells = format: functional
# Vero = experiment: Vero cell toxicity, dose response, cytotoxicity control, plate reader, cherry-pick samples (AID 687020); format: functional, cell-based; details: Chlorocebus sabaeus
# [13] = Luminescence Cell-Based Dose Confirmation HTS to Identify Activators of 5'UTR Stem-Loop Driven Alpha-Synuclein mRNA Translation in H4 Neuroglioblastoma Cells. [Related pubchem assays: 1829 (Project Summary), 1814 (Primary HTS)]; format: functional
# [14] = Luminescence Cell-Based Dose Response HTS to Identify Activators of Luciferase Translation or Activity in H4 […] Cells. [Related pubchem assays: 1829 (Project Summary), 1814 (Primary HTS)]; format: functional
# H4 = experiment: Luminescence Cell-Based Dose Response HTS to Identify Activators of 5'UTR Stem-Loop Driven Prion Protein mRNA Translation in H4 Neuroglioblastoma Cells. [Related pubchem assays: 1829 (Project Summary), 1814 (Primary HTS)]; format: functional; details: Homo sapiens
# [15] = biological target: T4, Carboxy-terminal domain RNA polymerase II polypeptide A small phosphatase 1 (Homo sapiens, UniProt Q9GZU7); experiment: inhibitors of CTDSP1, concentration-response testing, biochemical assay, absorbance-based, actives from ultra-high-throughput screening (AID 540297); format: functional
# T4 sequence (Q9GZU7 whole entry): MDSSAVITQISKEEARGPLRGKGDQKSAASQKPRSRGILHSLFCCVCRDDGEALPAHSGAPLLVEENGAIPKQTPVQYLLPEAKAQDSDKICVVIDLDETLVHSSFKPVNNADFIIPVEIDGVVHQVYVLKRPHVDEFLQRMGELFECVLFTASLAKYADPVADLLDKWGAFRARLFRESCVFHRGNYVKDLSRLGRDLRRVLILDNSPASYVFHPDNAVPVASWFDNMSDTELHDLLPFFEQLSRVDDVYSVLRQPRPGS
# [16] = biological target: T5, Tyrosine-protein phosphatase non-receptor type 11 (Homo sapiens, UniProt Q06124); experiment: SHP2 phosphatase inhibition, dose response, selectivity assay for STEP inhibitor project, biochemical (AID 602367); format: functional; details: read-out: IC50_Mean
# T5 sequence (Q06124 whole entry): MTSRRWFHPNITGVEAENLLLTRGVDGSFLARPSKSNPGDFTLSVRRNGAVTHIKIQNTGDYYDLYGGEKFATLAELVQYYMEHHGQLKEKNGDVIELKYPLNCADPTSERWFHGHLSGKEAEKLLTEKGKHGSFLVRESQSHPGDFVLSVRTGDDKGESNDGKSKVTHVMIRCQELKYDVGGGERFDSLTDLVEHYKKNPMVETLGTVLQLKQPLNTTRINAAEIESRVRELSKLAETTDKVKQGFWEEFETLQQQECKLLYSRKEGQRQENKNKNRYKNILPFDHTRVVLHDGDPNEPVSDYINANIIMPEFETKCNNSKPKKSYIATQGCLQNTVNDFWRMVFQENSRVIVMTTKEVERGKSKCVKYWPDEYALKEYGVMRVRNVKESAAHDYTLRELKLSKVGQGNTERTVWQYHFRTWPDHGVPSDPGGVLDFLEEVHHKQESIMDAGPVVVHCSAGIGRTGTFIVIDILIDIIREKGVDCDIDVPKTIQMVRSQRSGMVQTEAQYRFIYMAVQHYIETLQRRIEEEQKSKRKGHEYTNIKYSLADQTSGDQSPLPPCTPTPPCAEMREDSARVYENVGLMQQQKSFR
# [17] = biological target: T6, Tyrosine-protein phosphatase non-receptor type 5 (Homo sapiens, UniProt P54829); experiment: STEP phosphatase inhibitors, confirmation, biochemical, fluorescence intensity, uHTS hits (AID 602372); format: functional; details: read-out: IC50_Mean
# T6 sequence (P54829 whole entry): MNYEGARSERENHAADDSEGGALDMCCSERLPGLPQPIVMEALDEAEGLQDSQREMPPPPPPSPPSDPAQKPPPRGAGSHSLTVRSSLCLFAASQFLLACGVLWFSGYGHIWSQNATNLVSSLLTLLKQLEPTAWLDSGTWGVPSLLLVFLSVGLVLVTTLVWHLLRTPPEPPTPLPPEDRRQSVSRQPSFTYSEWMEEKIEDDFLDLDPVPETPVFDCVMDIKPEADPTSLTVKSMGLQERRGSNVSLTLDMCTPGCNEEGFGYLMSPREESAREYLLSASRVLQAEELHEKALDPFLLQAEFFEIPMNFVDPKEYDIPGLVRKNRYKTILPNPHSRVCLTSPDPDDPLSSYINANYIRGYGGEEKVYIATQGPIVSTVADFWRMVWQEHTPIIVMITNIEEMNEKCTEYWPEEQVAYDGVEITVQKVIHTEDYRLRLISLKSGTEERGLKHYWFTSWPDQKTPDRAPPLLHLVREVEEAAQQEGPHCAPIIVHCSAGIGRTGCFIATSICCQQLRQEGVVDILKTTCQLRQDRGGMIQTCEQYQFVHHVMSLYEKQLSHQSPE
# [18] = biological target: Dual specificity protein phosphatase 3 (Homo sapiens, UniProt P51452); experiment: VHR phosphatase inhibition, dose response, selectivity assay for STEP inhibitor project, biochemical (AID 602374); format: functional; details: read-out: IC50_Mean
# [19] = biological target: T7, Tyrosine-protein phosphatase non-receptor type 22 (Homo sapiens, UniProt Q9Y2R2); experiment: PTPN22 phosphatase inhibition, dose response, selectivity assay for STEP inhibitor project, biochemical (AID 624241); format: functional
# T7 sequence (Q9Y2R2 whole entry): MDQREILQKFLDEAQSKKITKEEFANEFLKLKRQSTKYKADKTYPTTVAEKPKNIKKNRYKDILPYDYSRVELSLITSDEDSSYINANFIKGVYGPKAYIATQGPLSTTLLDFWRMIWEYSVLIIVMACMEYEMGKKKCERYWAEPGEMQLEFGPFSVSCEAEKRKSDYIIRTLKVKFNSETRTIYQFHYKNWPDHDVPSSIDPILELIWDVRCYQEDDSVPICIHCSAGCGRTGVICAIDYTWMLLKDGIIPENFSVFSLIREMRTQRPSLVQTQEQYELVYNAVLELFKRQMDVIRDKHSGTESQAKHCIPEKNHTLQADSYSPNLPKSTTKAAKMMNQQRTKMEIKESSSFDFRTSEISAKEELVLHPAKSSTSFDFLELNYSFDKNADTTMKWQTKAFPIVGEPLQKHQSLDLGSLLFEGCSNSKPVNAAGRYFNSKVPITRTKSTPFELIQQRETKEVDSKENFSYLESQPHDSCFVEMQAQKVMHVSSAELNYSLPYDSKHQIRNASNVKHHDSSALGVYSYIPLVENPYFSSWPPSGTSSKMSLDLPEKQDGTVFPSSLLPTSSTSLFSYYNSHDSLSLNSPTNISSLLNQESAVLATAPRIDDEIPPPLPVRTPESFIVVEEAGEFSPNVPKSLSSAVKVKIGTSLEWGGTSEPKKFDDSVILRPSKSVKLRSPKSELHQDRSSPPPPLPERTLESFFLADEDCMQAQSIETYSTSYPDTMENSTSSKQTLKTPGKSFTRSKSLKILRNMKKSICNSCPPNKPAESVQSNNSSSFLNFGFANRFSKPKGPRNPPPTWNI
# [20] = biological target: T8, Palmitoyl-protein thioesterase ABHD10, mitochondrial (Mus musculus, UniProt Q6PE15); experiment: Late stage assay provider results from the probe development effort to identify inhibitors of PME-1: fluorescence-based dose response cell-based gel-based competitive Activity-Based Protein Profiling (ABPP) inhibition of ABHD10.; format: functional
# [21] = biological target: T8, Palmitoyl-protein thioesterase ABHD10, mitochondrial; experiment: Late stage assay provider results from the probe development effort to identify inhibitors of PME-1: fluorescence-based dose response biochemical gel-based competitive Activity-Based Protein Profiling (ABPP) inhibition of ABHD10 Set 1.; format: functional
# T8 sequence (Q6PE15 whole entry): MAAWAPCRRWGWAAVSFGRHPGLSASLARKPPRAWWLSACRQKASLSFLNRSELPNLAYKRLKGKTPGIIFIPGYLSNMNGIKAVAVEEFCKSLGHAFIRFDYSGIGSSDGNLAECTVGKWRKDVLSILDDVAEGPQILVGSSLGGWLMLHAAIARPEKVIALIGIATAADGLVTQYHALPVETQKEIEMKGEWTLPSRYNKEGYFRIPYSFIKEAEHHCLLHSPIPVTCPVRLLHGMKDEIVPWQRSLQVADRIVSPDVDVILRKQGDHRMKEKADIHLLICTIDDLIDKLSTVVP
# Chain of Beta-lactamase (Pseudomonas aeruginosa, UniProt Q79MP6) (Q79MP6 whole entry): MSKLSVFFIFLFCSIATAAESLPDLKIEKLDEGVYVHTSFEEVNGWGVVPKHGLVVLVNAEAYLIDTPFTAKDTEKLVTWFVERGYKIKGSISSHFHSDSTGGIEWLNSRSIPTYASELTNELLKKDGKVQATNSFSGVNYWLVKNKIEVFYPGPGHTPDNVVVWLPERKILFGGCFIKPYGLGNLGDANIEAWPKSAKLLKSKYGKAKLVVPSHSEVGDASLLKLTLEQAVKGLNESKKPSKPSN
# Chain of Beta-lactamase (Salmonella choleraesuis (strain SC-B67), UniProt Q5J463) (Q5J463 whole entry): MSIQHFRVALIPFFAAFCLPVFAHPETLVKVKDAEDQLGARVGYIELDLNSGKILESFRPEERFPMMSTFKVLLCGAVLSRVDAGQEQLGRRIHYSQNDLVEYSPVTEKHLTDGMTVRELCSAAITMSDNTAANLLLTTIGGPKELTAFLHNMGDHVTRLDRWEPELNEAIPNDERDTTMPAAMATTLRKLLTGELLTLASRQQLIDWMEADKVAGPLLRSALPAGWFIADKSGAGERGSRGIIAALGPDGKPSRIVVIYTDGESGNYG
# Chain of Arf-GAP with SH3 domain, ANK repeat and PH domain-containing protein 1 (Q9ULH1 whole entry, the tested form may be a part): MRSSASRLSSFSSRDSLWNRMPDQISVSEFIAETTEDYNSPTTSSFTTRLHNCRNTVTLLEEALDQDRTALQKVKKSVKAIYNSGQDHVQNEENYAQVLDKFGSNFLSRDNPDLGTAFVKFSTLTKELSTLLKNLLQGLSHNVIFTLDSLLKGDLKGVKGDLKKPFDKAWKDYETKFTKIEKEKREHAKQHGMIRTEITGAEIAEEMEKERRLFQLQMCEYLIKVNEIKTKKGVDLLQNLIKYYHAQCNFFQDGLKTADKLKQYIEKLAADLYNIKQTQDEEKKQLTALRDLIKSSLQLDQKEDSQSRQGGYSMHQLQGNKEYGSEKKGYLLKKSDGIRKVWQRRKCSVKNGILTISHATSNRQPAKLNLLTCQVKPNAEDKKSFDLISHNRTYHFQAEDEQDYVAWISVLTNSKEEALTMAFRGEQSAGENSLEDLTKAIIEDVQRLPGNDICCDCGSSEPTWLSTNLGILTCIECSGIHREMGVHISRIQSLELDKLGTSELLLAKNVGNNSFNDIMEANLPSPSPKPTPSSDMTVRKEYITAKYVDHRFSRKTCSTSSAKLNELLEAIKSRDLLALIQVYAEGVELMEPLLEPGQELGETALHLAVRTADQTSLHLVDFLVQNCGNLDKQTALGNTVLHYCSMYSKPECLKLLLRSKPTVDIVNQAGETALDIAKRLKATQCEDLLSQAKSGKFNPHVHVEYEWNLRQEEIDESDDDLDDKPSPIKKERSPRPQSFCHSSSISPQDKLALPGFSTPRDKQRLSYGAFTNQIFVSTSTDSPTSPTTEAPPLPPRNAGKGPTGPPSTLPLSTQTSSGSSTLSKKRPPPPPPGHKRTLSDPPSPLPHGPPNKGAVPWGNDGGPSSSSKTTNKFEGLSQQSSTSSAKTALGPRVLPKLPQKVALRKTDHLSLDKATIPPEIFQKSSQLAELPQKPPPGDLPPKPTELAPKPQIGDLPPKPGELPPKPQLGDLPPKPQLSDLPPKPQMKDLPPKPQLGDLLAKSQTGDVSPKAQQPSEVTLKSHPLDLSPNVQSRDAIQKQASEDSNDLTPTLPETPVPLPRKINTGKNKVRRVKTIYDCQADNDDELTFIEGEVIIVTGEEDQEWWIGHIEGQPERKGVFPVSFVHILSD
# Chain of ADP-ribosylation factor GTPase-activating protein 1 (Q62848 whole entry, the tested form may be a part): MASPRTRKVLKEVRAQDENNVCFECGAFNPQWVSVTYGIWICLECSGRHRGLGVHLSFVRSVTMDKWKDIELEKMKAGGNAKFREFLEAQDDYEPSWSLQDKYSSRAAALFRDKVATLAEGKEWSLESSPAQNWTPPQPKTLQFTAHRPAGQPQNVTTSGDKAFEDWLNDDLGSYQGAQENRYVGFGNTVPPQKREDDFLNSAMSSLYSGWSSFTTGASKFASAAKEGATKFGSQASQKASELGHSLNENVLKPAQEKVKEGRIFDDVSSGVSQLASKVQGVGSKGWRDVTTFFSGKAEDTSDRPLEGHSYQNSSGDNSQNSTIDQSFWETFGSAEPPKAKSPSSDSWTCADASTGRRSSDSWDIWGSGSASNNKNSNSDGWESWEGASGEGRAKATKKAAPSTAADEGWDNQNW
# Chain of Lethal factor (P15917 whole entry): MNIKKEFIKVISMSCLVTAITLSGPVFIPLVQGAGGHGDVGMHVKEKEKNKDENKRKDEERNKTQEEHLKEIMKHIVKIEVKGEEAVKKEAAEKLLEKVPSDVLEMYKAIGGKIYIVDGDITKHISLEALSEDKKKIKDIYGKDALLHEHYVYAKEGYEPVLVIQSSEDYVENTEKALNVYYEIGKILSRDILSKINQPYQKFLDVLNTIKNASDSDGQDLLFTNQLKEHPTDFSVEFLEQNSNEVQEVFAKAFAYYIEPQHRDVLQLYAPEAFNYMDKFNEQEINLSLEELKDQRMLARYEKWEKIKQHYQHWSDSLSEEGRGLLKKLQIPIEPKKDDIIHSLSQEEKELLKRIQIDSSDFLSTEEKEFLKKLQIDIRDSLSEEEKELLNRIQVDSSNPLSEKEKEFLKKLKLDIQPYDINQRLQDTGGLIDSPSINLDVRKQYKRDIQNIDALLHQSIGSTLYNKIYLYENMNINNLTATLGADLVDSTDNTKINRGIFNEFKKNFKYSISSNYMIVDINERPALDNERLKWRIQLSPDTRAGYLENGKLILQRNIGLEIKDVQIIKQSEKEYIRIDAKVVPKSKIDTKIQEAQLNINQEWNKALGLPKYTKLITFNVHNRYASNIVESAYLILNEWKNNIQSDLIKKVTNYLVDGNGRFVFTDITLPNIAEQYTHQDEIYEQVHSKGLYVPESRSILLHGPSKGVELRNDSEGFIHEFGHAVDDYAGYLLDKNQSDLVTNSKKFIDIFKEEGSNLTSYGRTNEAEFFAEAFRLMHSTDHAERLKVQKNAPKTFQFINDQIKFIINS
# Chain of Dual specificity protein phosphatase 3 (P51452 whole entry): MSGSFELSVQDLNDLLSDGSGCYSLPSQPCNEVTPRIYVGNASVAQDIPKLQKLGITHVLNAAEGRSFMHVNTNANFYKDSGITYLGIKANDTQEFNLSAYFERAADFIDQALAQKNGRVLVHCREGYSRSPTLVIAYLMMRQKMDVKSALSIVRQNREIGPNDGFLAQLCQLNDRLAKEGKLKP
# Chain of Botulinum neurotoxin type F (P30996 1-436 limits assumed): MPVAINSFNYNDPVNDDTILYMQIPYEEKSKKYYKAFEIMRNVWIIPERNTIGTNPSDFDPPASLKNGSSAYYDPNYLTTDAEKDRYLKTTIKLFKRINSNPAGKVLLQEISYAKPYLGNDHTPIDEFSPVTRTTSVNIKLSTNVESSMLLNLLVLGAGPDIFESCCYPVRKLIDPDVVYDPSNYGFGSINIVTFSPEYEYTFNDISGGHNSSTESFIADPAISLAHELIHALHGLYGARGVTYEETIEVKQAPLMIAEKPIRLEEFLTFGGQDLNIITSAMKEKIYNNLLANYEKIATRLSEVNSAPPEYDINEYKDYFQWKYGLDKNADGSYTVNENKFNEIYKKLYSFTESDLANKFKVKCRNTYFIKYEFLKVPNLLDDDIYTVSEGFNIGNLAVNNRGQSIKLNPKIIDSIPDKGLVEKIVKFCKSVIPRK
smiles,measurement,setting,value
Cc1ccc(OCc2ccc(C(=O)Nc3ccc(C(N)=O)cc3)o2)c([N+](=O)[O-])c1,IC50,[1],16.7 µM (inactive)
same,IC50,[2],14 µM (inactive)
Cc1cc2ccccc2n1CCNC(=O)C(C)C,EC50,[3],> 195 µM (not active)
same,EC50,Lethal factor,19.5 µM (active)
same,EC50,[4],> 20 µM (inactive)
same,IC50,Protein skinhead-1,94.3 µM (inactive)
COc1cc2c3nnc(-c4ccc(F)cc4)c-3cn(Cc3ccc(F)cc3)c2cc1OC,EC50,[5],6.2 µM (active)
same,EC50,[6],7.33 µM (active)
same,IC50,[7],> 20 µM (inactive)
same,AC50,[8],26.3 µM (active)
CCCCC(=O)Nc1ccc(C(=O)Nc2ccc(S(=O)(=O)N3CCCC3)cc2)cc1,EC50,[9],> 29.9 µM (inactive)
same,IC50,[10],> 29.9 µM (inactive)
CCN(CC)c1ccc2cc(C(=O)NCc3ccc(F)cc3)c(=N)oc2c1,IC50,Beta-lactamase [11],> 59.6 µM (inactive)
same,IC50,Beta-lactamase [12],28.1 µM (inactive)
same,IC50,cells,2.12 µM (active)
O=C(Nc1ccccc1C(F)(F)F)C(O)(c1ccccc1)C1CCCCC1 (stereo unspecified),AC50,Vero,36.8 µM (active)
N#C/C(=C\c1ccc(OC(=O)c2ccc(Cl)s2)cc1)c1nc2ccccc2[nH]1,EC50,[13],13.1 µM (active)
same,EC50,[14],19.1 µM (active)
same,EC50,H4,71.4 µM (active)
same,IC50,[15],1.77 µM (active)
same,IC50,[16],1.29 µM (active)
same,IC50,[17],16.9 µM (active)
same,IC50,[18],2.49 µM (active)
same,IC50,[19],22.9 µM (inactive)
CC[C@@]1(c2ccc(C)cc2)C(=O)N(C(=O)OC(C)C)N1C(=O)OC(C)C,IC50,[20],0.028 µM (active)
same,IC50,[21],0.017 µM (active)
